Test results as given in patent publication US20040024024A1, “Aromatic sulfone hydroxamates and their use as protease inhibitors” (priority 2001, published 2004).

Assays:
[1] = biological target: T1, Human recombinant MMP-2 (Homo sapiens, UniProt P08253); experiment: In vitro MMP inhibition, IC50 determination (fluorogenic substrate I); assay type: biochemical
T1 construct: made in house; host or cells: MMP-2-transfected p2AHT2 cells
T1 sequence (P08253 110-660): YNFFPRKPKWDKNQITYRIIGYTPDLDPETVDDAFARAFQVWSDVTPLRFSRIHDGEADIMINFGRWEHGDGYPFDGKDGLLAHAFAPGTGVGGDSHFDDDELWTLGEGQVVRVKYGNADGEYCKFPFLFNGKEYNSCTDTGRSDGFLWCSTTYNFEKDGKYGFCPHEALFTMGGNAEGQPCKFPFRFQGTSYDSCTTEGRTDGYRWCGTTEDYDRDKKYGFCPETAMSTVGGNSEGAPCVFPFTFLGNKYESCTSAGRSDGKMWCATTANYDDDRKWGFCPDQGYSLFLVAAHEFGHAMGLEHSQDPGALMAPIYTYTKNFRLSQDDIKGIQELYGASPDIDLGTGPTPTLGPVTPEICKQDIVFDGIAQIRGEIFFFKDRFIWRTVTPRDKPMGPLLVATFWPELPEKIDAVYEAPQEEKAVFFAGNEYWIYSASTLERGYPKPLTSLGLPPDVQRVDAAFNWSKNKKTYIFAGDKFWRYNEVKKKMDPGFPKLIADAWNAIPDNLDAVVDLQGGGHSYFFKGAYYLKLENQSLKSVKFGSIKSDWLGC
Method in brief: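 IC50 was derived from the concentration-dependent fall in fluorescence (ex 328, em 415 nm) on Gly-Leu cleavage of 4 μM MCA/Dpa-quenched substrate I. Assays ran at room temperature in pH 7.5 Tris/NaCl/CaCl2/Brij buffer with MMP-2 activated by trypsin or APMA; inhibitors were diluted from 1% DMSO stocks.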

[2] = biological target: T2, Human recombinant MMP-1 (Homo sapiens, UniProt P03956); experiment: as above; assay type: biochemical; conditions: value outside parenthesis
T2 construct: made in house; host or cells: MMP-1-transfected HT-1080 cells (spent media)
T2 sequence (P03956 100-469): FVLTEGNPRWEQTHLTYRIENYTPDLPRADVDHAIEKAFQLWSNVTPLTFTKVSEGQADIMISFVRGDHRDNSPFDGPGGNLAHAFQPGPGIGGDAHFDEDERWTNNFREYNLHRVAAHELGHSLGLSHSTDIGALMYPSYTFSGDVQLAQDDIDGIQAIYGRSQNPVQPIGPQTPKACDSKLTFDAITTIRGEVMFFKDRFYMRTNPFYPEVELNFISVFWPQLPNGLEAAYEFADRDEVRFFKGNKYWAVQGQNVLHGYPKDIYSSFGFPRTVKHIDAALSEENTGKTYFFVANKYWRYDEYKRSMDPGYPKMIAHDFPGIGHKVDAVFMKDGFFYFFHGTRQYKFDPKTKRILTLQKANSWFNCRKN
Method in brief: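 Inhibitor dilutions were made in 100 mM Tris-HCl/100 mM NaCl/10 mM CaCl2 buffer, pH 7.5, and incubated at room temperature with activated proenzyme (from transfected HT-1080 media; APMA or trypsin) and 4 μM quenched methoxycoumarin peptide substrate. Loss of 415 nm fluorescence (328 nm excitation) against concentration gave IC50.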

SMILES	IC50 ([1]; value outside parentheses)	further results
O=C(NO)C1(S(=O)(=O)c2ccc(OCCCc3cccc(-c4ccccn4)c3)cc2)CCOCC1 [Example 148]		IC50 ([1]; value outside parenthesis): 0.272 µM
O=C(NO)C1(S(=O)(=O)c2ccc(OCCCc3cccc(-c4ccncc4)c3)cc2)CCOCC1 [Example 149]		IC50 ([1]; value outside parenthesis): 0.0771 µM
CC(C)c1ccc(-c2cccc(CCCOc3ccc(S(=O)(=O)C4(C(=O)NO)CCOCC4)cc3)c2)cc1 [Example 160]		IC50 [2]: > 10 µM; IC50 ([1]; value outside parenthesis): > 10 µM
O=C(NO)C1(S(=O)(=O)c2ccc(OCCCc3cccc(-c4ccccc4Cl)c3)cc2)CCOCC1 [Example 162]		IC50 ([1]; value outside parenthesis): 1.6 µM
Cc1ccccc1-c1cccc(CCCOc2ccc(S(=O)(=O)C3(C(=O)NO)CCOCC3)cc2)c1 [Example 164]		IC50 ([1]; value outside parenthesis): 1.07 µM
Cc1ccc(-c2cccc(CCCOc3ccc(S(=O)(=O)C4(C(=O)NO)CCOCC4)cc3)c2)cc1C [Example 165]		IC50 ([1]; value outside parenthesis): 3.4 µM
O=C(NO)C1(S(=O)(=O)c2ccc(OCCCc3cncc(Br)c3)cc2)CCOCC1 [Example 522]	0.0129 µM	
O=C(COc1ccc(S(=O)(=O)C2(C(=O)NO)CCOCC2)cc1)c1cccc(-c2ccccc2)c1 [Example 563]	0.0735 µM	
O=C(CCCOc1ccc(S(=O)(=O)C2(C(=O)NO)CCOCC2)cc1)Nc1cccc(I)c1 [Example 570]	0.0048 µM	
O=C(NO)C1(S(=O)(=O)c2ccc(OCCCc3cccc(-n4ccnc4)c3)cc2)CCOCC1 [Example 574]	0.0294 µM	
O=C(NO)C1(S(=O)(=O)c2ccc(OCCCc3nc(-c4cccnc4)no3)cc2)CCOCC1 [Example 578]	0.0205 µM	
O=C(NO)C1(S(=O)(=O)c2ccc(OCCCc3nc(-c4ccccc4)no3)cc2)CCOCC1 [Example 584]	0.0729 µM	
O=C(NO)C1(S(=O)(=O)c2ccc(OCCCc3cccc(-c4ccc(C(F)(F)F)cc4)c3)cc2)CCOCC1 [Example 625]	3.5 µM	
O=C(NO)C1(S(=O)(=O)c2ccc(OCCCc3cccc(-c4ccc5c(c4)OCCO5)c3)cc2)CCOCC1 [Example 627]	2.07 µM	
O=C(NO)C1(S(=O)(=O)c2ccc(OCCCc3cccc(-c4ccc5ccccc5c4)c3)cc2)CCOCC1 [Example 629]	0.537 µM	
O=C(NO)C1(S(=O)(=O)c2ccc(OCCCc3cccc(-c4csc5ccccc45)c3)cc2)CCOCC1 [Example 631]	2.14 µM	
O=C(NO)C1(S(=O)(=O)c2ccc(OCCCc3cccc(-c4cc5ccccc5s4)c3)cc2)CCOCC1 [Example 633]	2.83 µM	
O=C(NO)C1(S(=O)(=O)c2ccc(OCCCc3cccc(-c4coc5ccccc45)c3)cc2)CCOCC1 [Example 634]	0.486 µM	
C=Cc1ccc(-c2cccc(CCCOc3ccc(S(=O)(=O)C4(C(=O)NO)CCOCC4)cc3)c2)cc1 [Example 635]	2.31 µM	
O=C(NO)C1(S(=O)(=O)c2ccc(OCCCc3cccc(-c4ccccc4O)c3)cc2)CCOCC1 [Example 636]	0.195 µM	
O=C(NO)C1(S(=O)(=O)c2ccc(OCCCc3cccc(-c4cccc5ccccc45)c3)cc2)CCOCC1 [Example 638]	4.4 µM	
Cc1ccc(-c2cccc(CCCOc3ccc(S(=O)(=O)C4(C(=O)NO)CCOCC4)cc3)c2)s1 [Example 639]	0.247 µM	
